Measurements published in ChEMBL document CHEMBL4385613, “Discovery of Conformational Control Inhibitors Switching off the Activated c-KIT and Targeting a Broad Range of Clinically Relevant c-KIT Mutants” (J Med Chem, 2019).
Calls of active or inactive are those of the source. No cut-off for these calls is given here.

Columns and labels:
GISTT1 [1] = experiment: Antiproliferative activity against human GISTT1 cells harboring heterozygous V560-Y578 deletion mutant assessed as reduction in cell viability by MTS assay; format: functional
[2] = biological target: Mast/stem cell growth factor receptor Kit (Homo sapiens, UniProt P10721); experiment: Inhibition of recombinant human N-terminal 6x-His-tagged c-KIT (547 to 935 residues)/(694 to 753 residues deletion) expressed in baculovirus infected Sf9 insect cells assessed as decrease in poly (Glu,Tyr) 4:1 phosphorylation measured after 150 mins in presence of ATP by ADP-glo based luminescence assay
GISTT1 [3] = experiment: Antiproliferative activity against human GISTT1 cells harboring heterozygous V560-Y578 del mutation assessed as reduction in cell viability by methylene blue staining based assay; format: functional
GIST882 [4] = experiment: Antiproliferative activity against human GIST882 cells harboring c-KIT exon 13 homozygous primary K642E mutant assessed as reduction in cell viability by MTS assay; format: functional
GIST882 [5] = experiment: Antiproliferative activity against human GIST882 cells harboring c-KIT exon 13 homozygous primary K642E mutant assessed as reduction in cell viability by methylene blue staining based assay; format: functional
GIST430 [6] = experiment: Antiproliferative activity against human GIST430 cells harboring c-KIT exon 11 primary in-frame V560-L576 deletion mutant and exon 13 heterozygous secondary missense V654A mutant assessed as reduction in cell viability by MTS assay; format: functional
GIST430 [7] = experiment: Antiproliferative activity against human GIST430 cells harboring c-KIT exon 11 primary in-frame V560-L576 deletion mutant and exon 13 heterozygous secondary missense V654A mutant assessed as reduction in cell viability by methylene blue staining based assay; format: functional
GIST48 [8] = experiment: Antiproliferative activity against human GIST48 cells harboring c-KIT exon 11 homozygous primary missense V560D mutant and exon 17 heterozygous secondary D820A mutant assessed as reduction in cell viability by MTS assay; format: functional
GIST48 [9] = experiment: Antiproliferative activity against human GIST48 cells harboring c-KIT exon 11 homozygous primary missense V560D mutant and exon 17 heterozygous secondary D820A mutant assessed as reduction in cell viability by methylene blue staining based assay; format: functional
GIST430 [10] = experiment: (§1) Antitumor activity against human GIST430 cells harboring c-KIT exon 11 primary in-frame V560-L576 deletion mutant and exon 13 heterozygous secondary missense V654A mutant xenografted in NOD-SCID mouse assessed as tumor regression at 40 mg/kg, po administered for 2 weeks with 2 days rest after day 5 and measured thrice per week up to 21 days during compound dosing; format: functional, organism-based
GIST430 [11] = experiment: as §1, with “growth inhibition” for “regression”; format: functional, organism-based

SMILES	IC50 [2] [nM]	GI50 (GISTT1 [1]) [nM]	GI50 (GISTT1 [3]) [nM]	also measured
CCc1cc(NC(=O)Nc2ccc(-c3csc(Nc4cc(N5CCN(CC)CC5)nc(C)n4)n3)cc2)no1	950	> 1000	> 1000	
CCc1cc(NC(=O)Nc2ccc(-c3cnc(Nc4cc(N5CCN(CC)CC5)nc(C)n4)s3)cc2)no1	97	3.2	3.2	
CCN1CCN(c2cc(Nc3ncc(-c4ccc(NC(C)=O)cc4)s3)ncn2)CC1	130	25	25	
CCN(CC)CCNC(=O)c1c(C)[nH]c(/C=C2\C(=O)Nc3ccc(F)cc32)c1C [SUNITINIB]		38	38	GI50 (GIST882 [4]): 64 nM; GI50 (GIST882 [5]): 64 nM; GI50 (GIST430 [6]): 47 nM; GI50 (GIST430 [7]): 47 nM; GI50 (GIST48 [8]): 2000 nM; GI50 (GIST48 [9]): 2000 nM; Activity (GIST430 [10]): inactive; TGI (GIST430 [11]): Active
CCc1cc(NC(=O)N2CC=C(c3cnc(Nc4cc(N5CCN(CC)CC5)nc(C)n4)s3)CC2)no1	82	4.9	4.9	
CCc1cc(NC(=O)Nc2ccc(-c3cnc(Nc4nc(C)nc(N5CCN(CC)CC5)n4)s3)cc2)no1	86	13	13	
CCN1CCN(c2cc(Nc3ncc(-c4ccc(NC(N)=O)cc4)s3)ncn2)CC1	98	86	86	
CCc1cc(NC(=O)Nc2ccc(-c3sc(Nc4cc(N5CCN(CC)CC5)ncn4)nc3C)cc2)no1	122	3.3	3.3	

Continued, in another order:

IC50 [2] [nM]	SMILES	GI50 (GISTT1 [1]) [nM]	GI50 (GISTT1 [3]) [nM]	also measured
71	CCc1cc(NC(=O)Nc2ccc(-c3cnc(Nc4cc(N5CCN(CCO)CC5)ncn4)s3)cc2)no1	3.3	3.3	
43	CCc1cc(NC(=O)Nc2ccc(-c3cnc(Nc4cc(N5CCN(CC)CC5)ncn4)s3)cn2)no1	1	1	
38	CCc1cc(NC(=O)NCC#Cc2cnc(Nc3cc(N4CCN(CC)CC4)ncn3)s2)no1	9.9	9.9	
50	CCc1cc(NC(=O)NCCCc2cnc(Nc3cc(N4CCN(CC)CC4)nc(C)n3)s2)no1	10	10	
54	CCN1CCN(c2cc(Nc3ncc(-c4ccc(NS(=O)(=O)c5ccccc5)cc4)s3)nc(C)n2)CC1	42	42	
15	CCc1cc(NC(=O)Nc2ccc(-c3cnc(Nc4cc(N5CCC(N)C5)nc(C)n4)s3)cc2)no1 (configuration not stated)	6.4	6.4	
20	Cc1nc(Nc2ncc(-c3ccc(NC(=O)Nc4ccccc4)cc3)s2)cc(N2CCN(C)CC2)n1	5.4	5.4	
